Laboratory results as given in ChEMBL document CHEMBL1201862, “PubChem BioAssay data set” (2004).
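Exposure lasted 48 hours, with cells grown in 96-well plates and compounds tested at five concentrations. Abbreviation: GI50, concentration required for 50% inhibition of growth.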 Calls of active or inactive are those of the source. Rule as the data show it: active = GI50 up to about 1.1 µM and inactive = higher.

Columns and labels:
Assay in all cases: inhibition of tumour cell growth, NCI panel, 48 h
NCI-H23 = test system: NCI-H23
SK-MEL-28 = test system: SK-MEL-28
NCI/ADR-RES = test system: NCI/ADR-RES
HCT-15 = test system: HCT-15
RPMI-8226 = test system: RPMI-8226
TK-10 = test system: TK-10
UACC-257 = test system: UACC-257
HOP-62 = test system: HOP-62
HL-60 = test system: HL-60
Malme-3M = test system: Malme-3M
SK-MEL-5 = test system: SK-MEL-5
MOLT-4 = test system: MOLT-4
MCF7 = test system: MCF7
OVCAR-3 = test system: OVCAR-3
HOP-92 = test system: HOP-92
U-251 = test system: U-251
KM12 = test system: KM12
SR = test system: SR
NCI-H226 = test system: NCI-H226
EKVX = test system: EKVX

SMILES | GI50 (NCI-H23) | GI50 (SK-MEL-28) | GI50 (NCI/ADR-RES) | GI50 (HCT-15) [µM] | GI50 (RPMI-8226) | GI50 (TK-10) | GI50 (UACC-257) | GI50 (HOP-62) | GI50 (HL-60) | GI50 (Malme-3M) | GI50 (SK-MEL-5) | GI50 (MOLT-4) | GI50 (MCF7) | GI50 (OVCAR-3) | GI50 (HOP-92) | GI50 (U-251) | GI50 (KM12) | GI50 (SR) | GI50 (NCI-H226) | GI50 (EKVX)
O=c1ccn(COC(COCc2ccccc2)COCc2ccccc2)c(=O)[nH]1 | > 100 µM (inactive) | > 100 µM (inactive) | > 100 µM (inactive) | > 100 | > 100 µM (inactive) | > 100 µM (inactive) | > 100 µM (inactive) | > 100 µM (inactive) | 85.7 µM (inactive) | > 100 µM (inactive) | 76.4 µM (inactive) | 24.2 µM (inactive) | > 100 µM (inactive) | > 100 µM (inactive) | > 100 µM (inactive) | > 100 µM (inactive) | > 100 µM (inactive) | 62.8 µM (inactive) | > 100 µM (inactive) | –
O=C(/C=N/c1ccccc1S)c1ccco1 | 4.01 µM (inactive) | 15.8 µM (inactive) | – | 7.66 | 14.8 µM (inactive) | 19.1 µM (inactive) | 17.7 µM (inactive) | 3.66 µM (inactive) | 4.17 µM (inactive) | 18.9 µM (inactive) | 17.3 µM (inactive) | 5.32 µM (inactive) | – | 17.1 µM (inactive) | – | 5.53 µM (inactive) | 16.3 µM (inactive) | – | – | 10.7 µM (inactive)
COc1cc(/C=C/C(=O)Oc2ccc(NC(C)=O)cc2)ccc1C(=O)O/C=C/c1ccccc1 | > 100 µM (inactive) | > 100 µM (inactive) | > 100 µM (inactive) | > 100 | > 100 µM (inactive) | – | > 100 µM (inactive) | > 100 µM (inactive) | > 100 µM (inactive) | > 100 µM (inactive) | > 100 µM (inactive) | 66.8 µM (inactive) | > 100 µM (inactive) | > 100 µM (inactive) | > 100 µM (inactive) | > 100 µM (inactive) | > 100 µM (inactive) | – | > 100 µM (inactive) | > 100 µM (inactive)
CCOC(=O)NC(Nc1ncccn1)(C(=O)OCC)C(F)(F)F (stereo not given) | > 100 µM (inactive) | > 100 µM (inactive) | > 100 µM (inactive) | > 100 | > 100 µM (inactive) | > 100 µM (inactive) | > 100 µM (inactive) | – | > 100 µM (inactive) | – | > 100 µM (inactive) | > 100 µM (inactive) | > 100 µM (inactive) | > 100 µM (inactive) | > 100 µM (inactive) | > 100 µM (inactive) | > 100 µM (inactive) | > 100 µM (inactive) | – | > 100 µM (inactive)
O=C=C=P(c1ccccc1)(c1ccccc1)c1ccccc1 | 31.3 µM (inactive) | > 100 µM (inactive) | – | > 100 | 27.3 µM (inactive) | 3.46 µM (inactive) | 27.8 µM (inactive) | – | 11.1 µM (inactive) | 30.6 µM (inactive) | 21.5 µM (inactive) | 55.8 µM (inactive) | – | – | 16.1 µM (inactive) | 72.1 µM (inactive) | 48.9 µM (inactive) | 86.7 µM (inactive) | 45.6 µM (inactive) | 46.7 µM (inactive)
